We go through one compound from patent US8916558B2, “Powders for reconstitution” (Tibotec Pharmaceuticals Ltd., priority 2007, dated 2014).

This data set in a line: Solubility of TMC278 in water (statement). The following applies: free base; background statement. In kind it is physicochemical.

Regarding `Cc1cc(C=CC#N)cc(C)c1Nc1ccnc(Nc2ccc(C#N)cc2)n1` [TMC278, 4-[[4-[[4-(2-cyano-ethenyl)-2,6-dimethylphenyl]-amino]-2-pyrimidinyl]-amino]-benzonitrile], the solubility in water result is reported as “poorly soluble in water”.
